These results are taken from paper PMC6522941, “Design, synthesis, and anticancer evaluation of novel quinoline derivatives of ursolic acid with hydrazide, oxadiazole, and thiadiazole moieties as potent MEK inhibitors” (Journal of Enzyme Inhibition and Medicinal Chemistry, 2019).

For one assay, the system named is MDA-MB-231 cells. As to the kind of experiment: MTT cytotoxic assay, MDA-MB-231. The class given is cell-based, human. The settings on record: Homo sapiens, MDA-MB-231, 72 h. The method, then:
(§1) Human breast cancer cell line (MDA-MB-231), cervical carcinoma cell line (HeLa), the liver cancer cell line (SMMC-7721) and normal hepatocyte cell line (QSG-7701) were maintained in Dulbecco Modified Eagle Medium (DMEM) containing 4.0 mM L-Glutamine and 4500 mg/L Glucose supplemented with 10% (v/v) foetal bovine serum (FBS) and 100 U/mL penicillin/streptomycin at 37 °C in humidified atmosphere of 5% CO2 and 95% air.
(§2) Exponentially growing MDA-MB-231, Hela and SMMC-7721 cell lines were seeded into 96-well plate for 100 μL and treated with different concentrations of the synthetic compounds for 72 h, and then 10 μL of MTT (10 mg/mL) was added and incubation for 3 ∼ 4 h at 37 °C. The generated purple formazan crystals from viable can be dissolved by adding 100 μL DMSO. The plates were swirled gently for 5 min and quantified by measuring the OD of the plates at the wavelength of 540 nm. Each concentration was repeated in three wells and the same experimental condition was provided for all compounds. The results were expressed as IC50 values with standard deviations, which was defined as the concentration at which 50% survival of cells was discerned. Etoposide was co-assayed as positive control.
(§3) The in vitro cytotoxic activity of derivatives 3a–d, 4a–h, 5a–h, and 6a–h were evaluated by MTT assay against human breast cancer cell line (MDA-MB-231), cervical carcinoma cell line (HeLa), hepatocarcinoma cell line (SMMC-7721) and human normal hepatocyte cell line (QSG-7701). The anticancer drug etoposide was co-assayed as the positive control. All tested compounds were dissolved in DMSO and the stock solutions were diluted by DMEM medium before treatment of the cultured cells.
Background: Tetrazolium assays rely on reduction of a dye to a coloured formazan, in cell work by metabolically active cells.

Another assay relates to HeLa cells. Description: MTT cytotoxic assay, HeLa. The note with it: Homo sapiens, 72 h. The class given is cell-based. The method, then:
as §1, §2, §3

The subject of another assay is SMMC-7721 cells. As to the kind of experiment: MTT cytotoxic assay, SMMC-7721. The class given is cell-based. The settings on record: Homo sapiens, 72 h. The method, then:
as §1, §2, §3

A further assay concerns QSG-7701 cells. As to the kind of experiment: MTT cytotoxic assay, normal hepatocyte QSG-7701. The format is cell-based, human. The settings on record: for IC50: Homo sapiens, QSG7701, MTT, normal hepatocyte cell line; for Selectivity: IC50 (QSG-7701)/IC50 (HeLa). The method, then: as §1, §2, §3
Another assay addresses T1, MEK1 (Homo sapiens, UniProt Q02750).
T1 construct: purchased Carna Biosciences, Kobe, Japan
As to the kind of experiment: In vitro MEK1 kinase assay (ADP-Glo). The format is biochemical. The settings on record: recombinant GST-MEK1, GST-ERK2 (inactive) substrate, 10 μM ATP. The method, then: An in vitro kinase assay of MEK1 was performed using ADP-Glo kinase assay (Promega, Madison, WI, USA) according to the manufacturer’s protocol. […] Reactions were stopped by adding 5 μL of ADP-Glo reagent to each well. After incubating at 22 °C for 40 min, 10 μL of the kinase detection reagent was added and the plates were incubated for another 30 min at 22 °C in the dark. The reaction mixture was analysed by EnSpire (PerkinElmer, Waltham, MA, USA).
The Raf/MEK/ERK pathway is the downstream of Ras activation, and the abnormal expression or phosphorylation of the associated proteins is essential for cancer cell proliferation. In this pathway, MEK kinase is an important anticancer target because of its key roles in regulating the cancer cell apoptosis and oncogenic transformation[51]^,[52]. Among MEK proteins, MEK1 and MEK2 are known as substrate-specific kinases which phosphorylate their downstream kinase ERK1/2.
A general note: ADP-Glo first removes unused ATP, then detects ADP through luciferase.

T1 sequence (Q02750 whole entry): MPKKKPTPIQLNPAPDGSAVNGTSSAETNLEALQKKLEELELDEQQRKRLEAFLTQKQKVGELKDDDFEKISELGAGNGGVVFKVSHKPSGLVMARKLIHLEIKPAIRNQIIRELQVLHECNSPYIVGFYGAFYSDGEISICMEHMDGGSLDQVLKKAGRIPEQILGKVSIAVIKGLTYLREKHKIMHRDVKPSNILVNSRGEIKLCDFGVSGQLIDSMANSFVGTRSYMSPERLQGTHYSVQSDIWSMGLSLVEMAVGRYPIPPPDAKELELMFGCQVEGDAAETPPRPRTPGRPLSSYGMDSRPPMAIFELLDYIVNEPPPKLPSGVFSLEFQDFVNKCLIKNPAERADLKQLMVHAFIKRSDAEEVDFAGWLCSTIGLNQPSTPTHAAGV

For orientation: IC50 means the concentration that inhibits the measured activity by half. Turning to `CCCCc1nnc([C@]23CC[C@@H](C)[C@H](C)C2C2=CCC4[C@@]5(C)Cc6cc7cc(F)ccc7nc6C(C)(C)C5CC[C@@]4(C)[C@]2(C)CC3)o1` (some centres unmarked) [Compound 5g, N-[5′-fluoro-ursa-12-en-(2,3)-quinoline-28-oyl]-5-butyl-1,3,4-oxadiazole], the IC50 in the assay with MDA-MB-231 cells, in the assay on HeLa cells and with SMMC-7721 cells was over 50 µM in each case.
Take `Cc1nnc([C@]23CC[C@@H](C)[C@H](C)C2C2=CCC4[C@@]5(C)Cc6cc7cc(F)ccc7nc6C(C)(C)C5CC[C@@]4(C)[C@]2(C)CC3)s1` (some centres unmarked) [Compound 6c]: the IC50 was 31.6 ± 2.7 µM with MDA-MB-231 cells, over 50 µM in the assay with HeLa cells, over 50 µM in the assay on SMMC-7721 cells and over 50 µM in the assay on QSG-7701 cells. This compound also gave a Selectivity with QSG-7701 cells of 2.8.
As to `CCCCC(=O)NNC(=O)[C@]12CC[C@@H](C)[C@H](C)C1C1=CCC3[C@@]4(C)Cc5cc6cc(OC)ccc6nc5C(C)(C)C4CC[C@@]3(C)[C@]1(C)CC2` (some centres unmarked) [Compound 4f, N-[5′-methoxy-ursa-12-en-(2,3)-quinoline-28-oyl]-pentanehydrazide], the IC50 in the assay with MDA-MB-231 cells, in the assay on HeLa cells and in the assay on SMMC-7721 cells was over 50 µM in each case.
For `Cc1nnc([C@]23CC[C@@H](C)[C@H](C)C2C2=CCC4[C@@]5(C)Cc6cc7cc(Cl)ccc7nc6C(C)(C)C5CC[C@@]4(C)[C@]2(C)CC3)o1` (some centres unmarked) [Compound 5d, N-[5′-chloro-ursa-12-en-(2,3)-quinoline-28-oyl]-5-methyl-1,3,4-oxadiazole], the IC50 with MDA-MB-231 cells is 11 ± 0.98 µM; at MEK1, over 50 µM; in the assay on SMMC-7721 cells, over 50 µM; in the assay on QSG-7701 cells, over 50 µM. In addition, in the assay with QSG-7701 cells, the Selectivity was 20.1.
On to `C[C@@H]1CC[C@]2(C(=O)O)CC[C@]3(C)C(=CCC4[C@@]5(C)CCC(=O)C(C)(C)C5CC[C@]43C)C2[C@H]1C` (some centres unmarked) [Compound 2, 3-oxo-ursolic acid], for which the IC50 with MDA-MB-231 cells, with HeLa cells and in the assay on SMMC-7721 cells was over 50 µM throughout.
With `CCCCC(=O)NNC(=O)[C@]12CC[C@@H](C)[C@H](C)C1C1=CCC3[C@@]4(C)Cc5cc6cc(Cl)ccc6nc5C(C)(C)C4CC[C@@]3(C)[C@]1(C)CC2` (some centres unmarked) [Compound 4h, N-[5′-chloro-ursa-12-en-(2,3)-quinoline-28-oyl]-pentanehydrazide], the IC50 with MDA-MB-231 cells is over 50 µM; with HeLa cells, 46 ± 0.91 µM; in the assay on SMMC-7721 cells, over 50 µM.
As to `CCCCc1nnc([C@]23CC[C@@H](C)[C@H](C)C2C2=CCC4[C@@]5(C)Cc6cc7cc(Cl)ccc7nc6C(C)(C)C5CC[C@@]4(C)[C@]2(C)CC3)o1` (some centres unmarked) [Compound 5h, N-[5′-chloro-ursa-12-en-(2,3)-quinoline-28-oyl]-5-butyl-1,3,4-oxadiazole], the IC50 in the assay on MDA-MB-231 cells, with HeLa cells and in the assay with SMMC-7721 cells was over 50 µM in each case.
On to `CCCCc1nnc([C@]23CC[C@@H](C)[C@H](C)C2C2=CCC4[C@@]5(C)Cc6cc7cc(OC)ccc7nc6C(C)(C)C5CC[C@@]4(C)[C@]2(C)CC3)s1` (some centres unmarked) [Compound 6f, N-2-[5′-methoxy-ursa-12-en-(2,3)-quinoline-28-oyl]-5-butyl-1,3,4-thiadiazole], for which the IC50 with MDA-MB-231 cells, in the assay with HeLa cells and with SMMC-7721 cells was over 50 µM throughout.
In the case of `CCCCc1nnc([C@]23CC[C@@H](C)[C@H](C)C2C2=CCC4[C@@]5(C)Cc6cc7ccccc7nc6C(C)(C)C5CC[C@@]4(C)[C@]2(C)CC3)o1` (some centres unmarked) [Compound 5e, N-2-[ursa-12-en-(2,3)-quinoline-28-oyl]-5-butyl-1,3,4-oxadiazole], the IC50 in the assay with MDA-MB-231 cells, in the assay on HeLa cells and with SMMC-7721 cells was over 50 µM each time.
Take `COc1cc([C@@H]2c3cc4c(cc3[C@@H](O[C@@H]3O[C@@H]5CO[C@@H](C)O[C@H]5[C@H](O)[C@H]3O)[C@H]3COC(=O)[C@H]23)OCO4)cc(OC)c1O` [Etoposide, reference compound]: the IC50 with MDA-MB-231 cells came out at 5.26 ± 1.21 µM; in the assay on HeLa cells it was 2.98 ± 0.42 µM; with SMMC-7721 cells, 3.48 ± 0.35 µM; in the assay with QSG-7701 cells it was 28.8 ± 3.28 µM. Besides, in the assay with QSG-7701 cells, the Selectivity amounted to 9.6.
As for `C[C@H]1[C@H](C)CC[C@]2(C(=O)O)CC[C@]3(C)C(=CC[C@@H]4[C@@]5(C)CC[C@H](O)C(C)(C)[C@@H]5CC[C@]43C)[C@H]12` [Compound 1, Ursolic acid], the IC50 with MDA-MB-231 cells, in the assay on HeLa cells and in the assay with SMMC-7721 cells was over 50 µM each time.
`CCCCC(=O)NNC(=O)[C@]12CC[C@@H](C)[C@H](C)C1C1=CCC3[C@@]4(C)Cc5cc6ccccc6nc5C(C)(C)C4CC[C@@]3(C)[C@]1(C)CC2` (some centres unmarked) [Compound 4e, N-[ursa-12-en-(2,3)-quinoline-28-oyl]-pentanehydrazide]: the IC50 with MDA-MB-231 cells, with HeLa cells and in the assay on SMMC-7721 cells was over 50 µM each time.
`CCCCC(=O)NNC(=O)[C@]12CC[C@@H](C)[C@H](C)C1C1=CCC3[C@@]4(C)Cc5cc6cc(F)ccc6nc5C(C)(C)C4CC[C@@]3(C)[C@]1(C)CC2` (some centres unmarked) [Compound 4g, N-[5′-fluoro-ursa-12-en-(2,3)-quinoline-28-oyl]-pentanehydrazide]: the IC50 with MDA-MB-231 cells, in the assay with HeLa cells and with SMMC-7721 cells was over 50 µM each time.
In the case of `CCCCc1nnc([C@]23CC[C@@H](C)[C@H](C)C2C2=CCC4[C@@]5(C)Cc6cc7cc(Cl)ccc7nc6C(C)(C)C5CC[C@@]4(C)[C@]2(C)CC3)s1` (some centres unmarked) [Compound 6h, N-2-[5′-chloro-ursa-12-en-(2,3)-quinoline-28-oyl]-5-butyl-1,3,4-thiadiazole], the IC50 with MDA-MB-231 cells, in the assay with HeLa cells and with SMMC-7721 cells was over 50 µM throughout.
Turning to `CCCCc1nnc([C@]23CC[C@@H](C)[C@H](C)C2C2=CCC4[C@@]5(C)Cc6cc7cc(OC)ccc7nc6C(C)(C)C5CC[C@@]4(C)[C@]2(C)CC3)o1` (some centres unmarked) [Compound 5f, N-[5′-methoxy-ursa-12-en-(2,3)-quinoline-28-oyl]-5-butyl-1,3,4-oxadiazole], the IC50 in the assay with MDA-MB-231 cells was over 50 µM; in the assay with HeLa cells, 30.9 ± 1.14 µM; with SMMC-7721 cells, over 50 µM.
Turning to `CCCCc1nnc([C@]23CC[C@@H](C)[C@H](C)C2C2=CCC4[C@@]5(C)Cc6cc7ccccc7nc6C(C)(C)C5CC[C@@]4(C)[C@]2(C)CC3)s1` (some centres unmarked) [Compound 6e, N-2-[ursa-12-en-(2,3)-quinoline-28-oyl]-5-butyl-1,3,4-thiadiazole], the IC50 in the assay with MDA-MB-231 cells, with HeLa cells and in the assay on SMMC-7721 cells was over 50 µM each time.
In the case of `COc1ccc2nc3c(cc2c1)CC1(C)C(CCC2(C)C1CC=C1C4C(C)C(C)CCC4(c4nnc(C)s4)CCC12C)C3(C)C` (centres unmarked) [Compound 6b], the IC50 was 15.7 ± 2.01 µM with MDA-MB-231 cells, 12.8 ± 1.32 µM in the assay with HeLa cells, over 50 µM in the assay with SMMC-7721 cells and over 50 µM with QSG-7701 cells. The compound further showed a Selectivity in the assay on QSG-7701 cells of 8.5.
For the compound `COc1ccc2nc3c(cc2c1)CC1(C)C(CCC2(C)C1CC=C1C4C(C)C(C)CCC4(c4nnc(C)o4)CCC12C)C3(C)C` (centres unmarked) [Compound 5b, N-[5′-methoxy-ursa-12-en-(2,3)-quinoline-28-oyl]-5-methyl-1,3,4-oxadiazole], the IC50 with MDA-MB-231 cells is 12.25 ± 0.12 µM; in the assay on HeLa cells, 16.8 ± 0.34 µM; in the assay on SMMC-7721 cells it was over 50 µM; in the assay with QSG-7701 cells it was over 50 µM. Moreover, the Selectivity with QSG-7701 cells is 5.6.
As to `Cc1nnc([C@]23CC[C@@H](C)[C@H](C)C2C2=CCC4[C@@]5(C)Cc6cc7ccccc7nc6C(C)(C)C5CC[C@@]4(C)[C@]2(C)CC3)s1` (some centres unmarked) [Compound 6a], the IC50 was 18.8 ± 1.38 µM in the assay on MDA-MB-231 cells, 27.3 ± 1.91 µM in the assay on HeLa cells, over 50 µM in the assay on SMMC-7721 cells and over 50 µM with QSG-7701 cells. Further, the Selectivity in the assay on QSG-7701 cells amounted to 4.8.
As for `Cc1nnc([C@]23CC[C@@H](C)[C@H](C)C2C2=CCC4[C@@]5(C)Cc6cc7cc(F)ccc7nc6C(C)(C)C5CC[C@@]4(C)[C@]2(C)CC3)o1` (some centres unmarked) [Compound 5c, N-[5′-fluoro-ursa-12-en-(2,3)-quinoline-28-oyl]-5-methyl-1,3,4-oxadiazole], the IC50 in the assay on MDA-MB-231 cells is 13.2 ± 0.58 µM; in the assay on HeLa cells, 33.8 ± 0.95 µM; in the assay on SMMC-7721 cells, over 50 µM; in the assay with QSG-7701 cells it was over 50 µM. The Selectivity in the assay with QSG-7701 cells was determined as 3.6.
